By melting point is commonly meant the temperature of the solid-liquid transition.

Each structure is given as a SMILES string.

In turn, `Cc1ccccc1-c1cc2ccccc2c(=O)o1` displayed a melting point of 86 °C.
Next, `Clc1ccc(C(Cl)(Cl)Cl)cc1`: 5.8 °C; `O=C(O)C1Cc2cc3c(cc21)OCO3` (centres undefined): 150 °C.
Molecule `COc1ccc2cc(CCC(C)=O)ccc2c1` registered a melting point of 80 °C.
`Cc1c(Cl)c(C)c(Cl)c(Cl)c1Cl` showed a melting point of 223 °C.
The same measure for `O=C(O)C(O)c1ccccc1F` (centres undefined): 115 °C.
Next, `O=C(Oc1cc(Cl)cc(Cl)c1)c1ccc(C(=O)Oc2cc(Cl)cc(Cl)c2)cc1`: 230 °C.
The same measure for `Clc1ccc2c(c1)C(c1ccccc1)=NCc1nncn1-2`: 228 °C.
For the molecule `Clc1ccc2ccccc2c1Cl`, the melting point amounted to 36 °C.
The same measure for `Cc1cnc(O)c(Br)c1`: 157 °C.
The same measure for `OCc1ccc(I)cc1`: 73 °C.
The same measure for `Cc1cccc(NC=C2C(=O)NN=C2c2c(O)c3ccccc3n(C)c2=O)c1`: 264 °C.
`CCOP(=S)(OCC)Oc1cc(C)nc(N(CC)CC)n1` showed a melting point of 15 °C.
The same measure for `N#Cc1cnn(-c2ccccc2)c1-n1cccc1`: 81 to 83 °C.
The same measure for `O=CN(C=O)C=O`: 100 to 101 °C; for `CC1=NC(C)CNc2c1c(=O)n(-c1ccccc1)c1ccccc21` (centres undefined): 273 °C.
In turn, `CCCCCNCCCCC` had a melting point of -7.85 °C.
The same measure for `COC(=O)C(C#N)=C(NC(=O)c1ccccc1)SC`: 129 to 131 °C; for `O=C1CCC(c2ccccc2)=NN1c1n[nH]c(=S)n1-c1ccccc1`: 180 to 182 °C.
Next, `CCOC(=O)c1ccc(OC)c(OC)c1Cl`: 50 to 52 °C; `CC(=O)/N=c1\sc(C(C)=O)nn1-c1ccc(F)cc1`: 157 °C; `OCc1csc2ccc(Cl)cc12`: 93 to 94 °C.
The same measure for `COc1cccc(OC)c1N`: 77 °C.
With `Cc1onc(-c2ccccc2)c1C(=O)Cl`, the melting point lay in the range of 24 to 25 °C.
The same measure for `Cc1nc(/C(C#N)=C\c2ccccc2Cl)sc1/N=N/c1ccc(Cl)cc1`: 198 to 200 °C.
`ON=C(c1ccccc1)c1ccc(O)cc1` yielded a melting point of 78 °C.
Next, `O=C(CBr)c1cccc(C(=O)CBr)c1`: 91 °C; `CC(=O)OC1CCC2(C)C(C1)CC1(OCCO1)C1C2CCC2(C)C1CCC21OCCO1` (centres undefined): 205 to 210 °C; `O=C(OC1CCCCC1)C(=O)OC1CCCCC1`: 43.5 °C.
Next, `CC1(C)c2ccccc2Oc2ccccc21`: 41.5 °C; `O=[N+]([O-])c1ccc(Cc2ccncc2)cc1`: 71 °C.
Next, `NC(=O)/C(=N\Nc1ccc(O)cc1)c1nc2ccccc2s1`: 160 °C; `O=C(C=Cc1ccc([N+](=O)[O-])cc1)c1ccc(Cl)cc1`: 163 °C.
Regarding `Oc1ccc2c(c1)OCO2`, the melting point was in the range of 63 to 65 °C.
In the case of `Clc1ccc2c(c1)c1cc(Cl)ccc1n2CC1CO1` (centres undefined), the melting point lay in the range of 143 to 144 °C.
The molecule `C#Cc1ccc(Cl)cc1` displayed a melting point of 45 °C.
The same measure for `ClC1OCCOC1Cl` (centres undefined): 30 °C; for `Cn1c(=O)c(C2=NNC(=O)C2=CNc2ncccn2)c(O)c2ccccc21`: 279 °C; for `O=C(O)c1ccnc(C(=O)O)c1C(=O)O`: 250 °C.
In turn, `Cc1ccc(N(CCO)CCO)cc1N=Nc1ccc([N+](=O)[O-])cc1` yielded a melting point of 160 °C.
Next, `CCOC(=O)c1csc(NC(=O)CCl)n1`: 208 to 210 °C; `Cc1nnc(SCc2ccccc2)n1N=Cc1ccc(Cl)cc1`: 120 to 121 °C; `N#Cc1ccc(Cn2ccnc2)cc1`: 103 to 104 °C.
Next, `N#Cc1ccc(Cl)cc1F`: 60 °C.
The same measure for `Fc1ccc(Br)cc1Br`: 69 °C.
`Oc1nccnc1O` displayed a melting point of 300 °C.
For the molecule `Cc1onc(-c2ccccc2Cl)c1C(=O)Cl`, the melting point was determined as 42 °C.
Next, `C1CCC(CCC2CCCCC2)CC1`: 11.5 °C; `CCCc1c(C(=O)OCC)cnn1-c1ccc(Cl)cc1`: 63 to 65 °C; `O=C(CBr)c1ccc(-c2ccccc2)cc1`: 125 °C.
Next, `Clc1ccccc1-c1nc2ccccc2[nH]1`: 234 °C.
Molecule `COC(=O)C(C#N)=c1sc(=C(C#N)C(=O)OC)s1` displayed a melting point of 235 to 250 °C.
Next, `O=C(O)c1cccc(COc2ccccc2)c1`: 118 to 119 °C.
The same measure for `O=C(O)COc1ccccc1[N+](=O)[O-]`: 158 °C.
Next, `Brc1ccc(N2CCCCC2)cc1`: 75 to 76 °C; `Nc1ccc2c(c1N)C(=O)c1ccccc1C2=O`: 290 °C.
As for `O=C(O)c1ccccc1Nc1cccc(C(F)(F)F)c1`, the melting point turned out to be 134 °C.
Next, `Cc1ccc(O)c(N)c1`: 136 °C.
The same measure for `O=C(NC(=O)c1c(F)cccc1F)Nc1cc(Cl)c(OC(F)(F)C(F)C(F)(F)F)cc1Cl` (centres undefined): 169 °C; for `COc1cc(-c2n[nH]c(=S)n2/N=C/c2ccccc2O)cc(OC)c1OC`: 220 to 222 °C.
The same measure for `O=C(O)c1cc([N+](=O)[O-])cc([N+](=O)[O-])c1Cl`: 199 °C; for `N[C@H](Cc1ccc(I)cc1)C(=O)O`: 251 °C.
For `Cc1ccc([N+](=O)[O-])cc1S(=O)(=O)Cl`, the melting point amounted to 44 °C.
The same measure for `OCCn1ccnc1`: 39 °C; for `CC(C)(C)C(O)(CCc1ccc(Cl)cc1)Cn1cncn1` (centres undefined): 105 °C.
The same measure for `CC(=O)NCCO`: 16 °C; for `Cn1ccccc1=S`: 89.5 °C.
Next, `CCS(=O)(=O)Oc1ccc2c(c1)C(C)(C)CO2`: 30 °C; `CC(=O)C1(O)CCC2C3C=C(C)C4=CC(=O)CCC4(C)C3CCC21C` (centres undefined): 219 °C.
`O=C1CCSc2ccccc21` displayed a melting point of 29 °C.
`Cc1nc(-c2ccc(C(=O)Cl)cc2)no1` came in with a melting point of 112 to 113 °C.
As to `O=C1C=C(O)C(=O)C=C1O`, the melting point was found to be 220 °C.
In the case of `Clc1c(Cl)c(Cl)c2c(Cl)c(Cl)c(Cl)c(Cl)c2c1Cl`, the melting point is 198 °C.
Molecule `CCC1N(O)C(C)(C)C(C(=O)O)=[N+]1[O-]` (centres undefined) came in with a melting point of 98.8 to 99 °C.
The same measure for `Cc1cc(C(=O)O)c(C)n1Cc1ccncc1`: 171 to 173 °C; for `O=C(O)c1ccc(OCc2ccccc2)cc1`: 189 °C.
Next, `Nc1ccc(N=Nc2ccc([N+]([O-])=Nc3ccc(N)cc3)cc2)cc1`: 247 °C; `O=C1c2ccccc2CC1Br` (centres undefined): 39 to 44 °C.
Next, `CCC(Nc1ncnc(C)c1Cl)c1ccc(OC(F)F)cc1` (centres undefined): 47.8 °C; `CC(C)(O)CC(C)(O)c1ccc(Cl)cc1` (centres undefined): 76.5 °C; `CCCCCCCCCCCCC(Oc1ccc([N+](=O)[O-])cc1)C(=O)NN` (centres undefined): 127 °C.
For the molecule `CCC(C)(CC)c1cc(NC(=O)c2c(OC)cccc2OC)on1`, the melting point turned out to be 178 °C.
Next, `O=C(O)C1CCC(c2ccc(Cl)cc2)CC1` (centres undefined): 250 to 255 °C; `CCOC(CNC(=O)C(N)=O)OCC`: 138 to 140 °C.
`CCOC(=O)c1cc(C)on1` gave a melting point of 29 °C.
Next, `C=C[Si](Cl)(Cl)Cl`: -95 °C; `Oc1ccc(Cl)cc1C1CCCCC1`: 59 to 60 °C; `CC(C)CC(C)Br` (centres undefined): -94 °C.
In turn, `CN(N=Cc1ccc(F)cc1)P(=O)(N1CC1)N1CC1` showed a melting point of 106 °C.
Next, `COC(=O)c1cc(Br)ccc1NC(C)=O`: 134 °C; `CCNc1cccc(O)c1`: 62 °C.
`CCOC(=O)c1cc(-c2cccs2)n[nH]1` came in with a melting point of 137 to 139 °C.
Molecule `O=C(O)c1cc(F)ccc1O` returned a melting point of 179 to 182 °C.
Next, `OC1c2ccccc2C=Cc2ccccc21`: 126 °C; `O=C(c1ccccn1)C(O)c1ccccn1` (centres undefined): 151 to 158 °C.
The same measure for `SCc1ccc(Br)cc1`: 27 °C; for `Nc1nsc(SCc2ccccc2)n1`: 120 to 121 °C.
With `Cc1ccc2sc(C(=O)CBr)c(C)c2c1`, the melting point was 123 to 125 °C.
Next, `CC1=NN(c2ccccc2)C(=O)C1`: 129 °C; `COc1cc(F)c(F)cc1CBr`: 42 °C.
In turn, `CCCCCCCOC(=O)CC` returned a melting point of -50.9 °C.
Next, `O=C(O)c1ccc(Cn2cncn2)cc1`: 227 to 229 °C.
The same measure for `O=C1OC(CO)C(O)C(O)C1O` (centres undefined): 151 to 155 °C; for `C[Si](C)(C)NC(=O)N[Si](C)(C)C`: 232 °C; for `O=[N+]([O-])C=Cc1c(Cl)cccc1Cl`: 62 to 66 °C.
In turn, `Cc1ccc(C(O)c2ccc(C)cc2)cc1` had a melting point of 71 °C.
The same measure for `CC(C)(C)c1ccncc1`: -41 °C; for `Cc1onc(-c2ccccc2)c1N=C=S`: 73 to 77 °C; for `CCOC(=O)C12C(c3cc(Cl)ccc3OP1(=O)OCC)C1(C(=O)OCC)C2c2cc(Cl)ccc2OP1(=O)OCC` (centres undefined): 256 to 258 °C.
The same measure for `COc1ccc(C(O)C(C)(C)C(=O)O)cc1` (centres undefined): 115 to 117 °C.
The same measure for `O=c1c(Cl)c(Cl)cnn1Cc1ccc(Cl)cc1`: 138 to 139 °C; for `C/C(=C\C=C\c1ccccc1)C(=O)O`: 159 °C.
`O=P1(N(CCCl)CCCl)NCCCO1` (centres undefined): the melting point stood at 51.5 °C.
Regarding `COC(=O)c1scc(S(C)(=O)=O)c1N`, the melting point was determined as 145 °C.

The values above are taken from a melting point compilation (Tetko et al.).
